Source: US6545014B2, “Method of treating glaucoma” (Texas Biotechnology Corporation, priority 1991, dated 2003)
Where two headings read alike, the source gives them in different places.

Tests used:
human ETA receptors = target: T1, human ETA receptors (Homo sapiens, UniProt P25101); test: Binding Test #1: inhibition of 125I-endothelin-1 binding to ETA receptors (TE 671 cell membranes); conditions: incubation at 24° C.; generally the average of 2 to 3 experiments
T1 construct: host or cells: TE 671 cells (membranes)
T1 sequence (P25101 21-427): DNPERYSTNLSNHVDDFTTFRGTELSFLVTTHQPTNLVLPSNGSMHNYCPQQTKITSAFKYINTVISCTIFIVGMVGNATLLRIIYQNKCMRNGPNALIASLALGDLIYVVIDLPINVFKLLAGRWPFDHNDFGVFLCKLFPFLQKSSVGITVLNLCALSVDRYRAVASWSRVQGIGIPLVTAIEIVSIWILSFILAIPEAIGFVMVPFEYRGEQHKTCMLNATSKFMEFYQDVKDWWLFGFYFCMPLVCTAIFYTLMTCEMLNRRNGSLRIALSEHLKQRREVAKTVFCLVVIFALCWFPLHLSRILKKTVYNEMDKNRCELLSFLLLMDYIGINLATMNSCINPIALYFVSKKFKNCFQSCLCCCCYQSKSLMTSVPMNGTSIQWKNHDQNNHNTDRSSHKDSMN
From the text: (§1) Compounds that are potential endothelin antagonists are identified by testing their ability to compete with ^125I-labeled ET-1 for binding to human ETA receptors or ETB receptors present on isolated cell membranes. The effectiveness of the test compound as an antagonist or agonist of the biological tissue response of endothelin can also be assessed by measuring the effect on endothelin induced contraction of isolated rat thoracic aortic rings. The ability of the compounds to act as antagonists or agonists for ETB receptors can be assess by testing the ability of the compounds are to inhibit endothelin-1 induced prostacyclin release from cultured bovine aortic endothelial cells.
TE 671 cells (ATCC Accession No. HTB 139) express ETA receptors. These cells were grown to confluence in T-175 flasks. Cells from multiple flasks were collected by scraping, pooled and centrifuged for 10 min at 190×g. The cells were resuspended in phosphate buffered saline (PBS) containing 10 mM EDTA using a Tenbroeck homogenizer. The suspension was centrifuged at 4° C. at 57,800×g for 15 min, the pellet was resuspended in 5 ml of buffer A (5 mM HEPES buffer, pH 7.4 containing aprotinin (100 KIU/ml)) and then frozen and thawed once. 5 ml of Buffer B (5 mM HEPES Buffer, pH 7.4 containing 10 mM MnCl2 and 0.001 % deoxyribonuclease Type 1) was added, the suspension mixed by inversion and then incubated at 37° C. for 30 minutes. The mixture was centrifuged at 57,800×g as described above, the pellet washed twice with buffer A and then resuspended in buffer C (30 mM HEPES buffer, pH 7.4 containing aprotinin (100 KIU/ml) to give a final protein concentration of 2 mg/ml and stored at −70° C. until use.
The membrane suspension was diluted with binding buffer (30 mM HEPES buffer, pH 7.4 containing 150 mM NaCl, 5 mM MgCl2, 0.5% Bacitracin) to a concentration of 8 μg/50, μl. ^125I-endothelin-1 (3,000 cpm, […]) was added to 50 μl of either: (A) endothelin-1 (for non specific binding) to give a final concentration 80 nM); (B) binding buffer (for total binding); or (C) a test compound (final concentration 1 nM to 100 μM). The membrane suspension (50 μl), containing up to 8 μg of membrane protein, was added to each of (A), (B), or (C). Mixtures were shaken, and incubated at 4° C. for 16-18 hours, and then centrifuged at 4° C. for 25 min at 2,500×g. Alternatively, the incubation was conducted at 24° C. When incubated at 24° C., the IC50 concentrations are 2- to 10-fold higher than when the incubation is conducted at 4° C. This, must be kept in mind when comparing IC50 concentrations among compounds provided herein.
The supernatant, containing unbound radioactivity, was decanted and the pellet counted on a Genesys multiwell gamma counter. The degree of inhibition of binding (D) was calculated according to the following equation: [formula]
Each test was generally performed in triplicate.

human ETB receptor = target: T2, human ETB receptor (Homo sapiens, UniProt P24530); test: Binding Test #2: inhibition of 125I-endothelin-1 binding to ETB receptors (transfected COS7 cell membranes); conditions: incubation at 24° C.; generally the average of 2 to 3 experiments
T2 construct: expressed in transfected cells; host or cells: COS7 cells
T2 sequence (P24530 27-442): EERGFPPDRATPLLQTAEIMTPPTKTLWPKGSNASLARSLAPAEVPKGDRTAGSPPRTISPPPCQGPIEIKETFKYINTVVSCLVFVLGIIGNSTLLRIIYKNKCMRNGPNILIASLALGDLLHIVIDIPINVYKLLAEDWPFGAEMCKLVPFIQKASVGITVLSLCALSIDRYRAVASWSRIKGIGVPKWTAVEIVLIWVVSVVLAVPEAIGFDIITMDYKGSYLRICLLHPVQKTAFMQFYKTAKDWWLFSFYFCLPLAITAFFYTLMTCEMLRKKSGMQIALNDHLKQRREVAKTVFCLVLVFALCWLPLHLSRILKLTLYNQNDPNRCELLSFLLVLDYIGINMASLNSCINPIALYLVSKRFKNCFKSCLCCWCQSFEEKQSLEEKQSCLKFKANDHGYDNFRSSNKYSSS
From the text: as §1
COS7 cells were transfected with DNA encoding the ETB receptor, The resulting cells, which express the human ETB receptor, were grown to confluence in T-150 flasks. Membrane was prepared as described above. The binding assay was performed as described above using the membrane preparation diluted with binding buffer to a concentration of 1 μg/50 μl.
Briefly, the COS7 cells, described above, that had been transfected with DNA encoding the ETB receptor and express the human ETB receptor on their surfaces were grown to confluence in T-175 flasks. Cells from multiple flasks were collected by scraping, pooled and centrifuged for 10 min at 190×g. The cells were resuspended in phosphate buffered saline (PBS) containing 10 mM EDTA using a Tenbroeck homogenizer. The suspension was centrifuged at 4° C. 57,800×g for 15 min, the pellet was resuspended in 5 ml of buffer A (5mM HEPES buffer, pH 7.4 containing aprotinin (100 KIU/ml)) and then frozen and thawed once. Five ml of Buffer B (5 mM HEPES Buffer, pH 7.4 containing 10 mM MnCl2 and 0.001% deoxyribonuclease Type 1) was added, the suspension mixed by inversion and then incubated at 37° C. for 30 minutes. The mixture was centrifuged at 57,800×g as described above, the pellet washed twice with buffer A and then resuspended in buffer C (30 mM HEPES buffer, pH 7.4 containing aprotinin (100 KIU/ml) to give a final protein concentration of 2 mg/ml.
The binding assay was performed as described above using the membrane preparation diluted to give 1 μg/50, μl of binding buffer.

ETA receptor = conditions: cited from earlier work; for IC50: read-out: IC50, inhibition of 125I-labelled endothelin-1 binding
ETB receptors = conditions: concentrations up to 100 μM; cited from earlier work
isolated vascular strips = conditions: read-out: EC50, contractile agent; cited from earlier work

Molecule	IC50 (human ETA receptors) [nM]	IC50 (human ETB receptor) [nM]	other results
Cc1noc(NS(=O)(=O)c2c(Cc3cc4c(cc3CCO)OCO4)sc3ncccc23)c1Cl [N-(4-chloro-3-methyl-5-isoxazolyl)-2-[2-(2-hydroxyethyl)-4,5-(methylenedioxy)benzyl]thieno[2,3-b]pyridine-3-sulfonamide]	1.5	3600	
Cc1cc2c(cc1Cc1sc3ncccc3c1S(=O)(=O)Nc1onc(C)c1Cl)OCO2 [N-(4-chloro-3-methyl-5-isoxazolyl)-2-[2-methyl-4,5-(methylene-dioxy)benzyl]thieno [2,3-b]pyridine-3-sulfonamide]	1.5	1600	
Cc1noc(NS(=O)(=O)c2c(C(=O)c3ccc4c(c3)OCO4)sc3ncccc23)c1Cl [N-(4-chloro-3-methyl-5-isoxazolyl)-2-[3,4-(methylenedioxy)benzoyl]-thieno [2,3-b]pyridine-3-sulfonamide]	960	31000	
Cc1noc(NS(=O)(=O)c2c(Cc3ccc4c(c3)OCO4)sc3ncccc23)c1Cl [N-(4-chloro-3-methyl-5-isoxazolyl)-2-[3,4-(methylenedioxy)benzyl]thieno [2,3-b]pyridine-3-sulfonamide]	5.6	2800	
CCc1sc2ncccc2c1S(=O)(=O)Nc1onc(C)c1Cl [N-(4-chloro-3-methyl-5-isoxazolyl)-2-ethylthieno[2,3-b]pyridine-3-sulfonamide]	68	39000	
Cc1cc2c(cc1Cc1sc3ncccc3c1S(=O)(=O)Nc1noc(C)c1Cl)OCO2 [N-(4-chloro-5-methyl-3-isoxazolyl)-2-[2-methyl-4,5-(methylenedioxy)-benzyl]thieno[2,3-b]pyridine-3-sulfonamide]	1	500	
cyclo(D-Glu-L-Ala-allo-D-llc-L-Leu-D-Trp) [BE-18257B]			IC50 (ETA receptor; aortic smooth muscle): 1400 nM; IC50 (ETA receptor; cultured aortic smooth muscle cells): 500 nM; IC50 (ETA receptor; ventricle membranes): 800 nM; inhibition of binding to receptors in tissues in which ETB receptors predominate (ETB receptors): fails to inhibit binding
endothelin-1: potent twenty-one amino acid peptide vasoconstrictor			potency of inhibition of 125I-labelled endothelin-1 binding relative to endothelin-3 (ETA receptor; cardiovascular tissues): forty to seven hundred times more potently than endothelin-3; EC50 (isolated vascular strips): 0.4 nM

Continued, in another order:

IC50 (human ETA receptors) [nM]	IC50 (human ETB receptor) [nM]	Molecule	other results
34	560	Cc1noc(NS(=O)(=O)c2c(Cc3cccc4ccccc34)sc3ncccc23)c1Cl [N-(4-chloro-3-methyl-5-isoxazolyl)-2-(1-naphthylmethyl)thieno[2,3-b]pyridine-3-sulfonamide]	
4.5	1500	Cc1ccc(Cc2sc3ncccc3c2S(=O)(=O)Nc2onc(C)c2Cl)c(C)c1 [N-(4-chloro-3-methyl-5-isoxazolyl)-2-(2,4-dimethylbenzyl)thieno[2,3-b]pyridine-3-sulfonamide]	
650	10100	COc1cccc(OC)c1Cc1sc2ncccc2c1S(=O)(=O)Nc1onc(C)c1Cl [N-(4-chloro-3-methyl-5-isoxazolyl)-2-(2,6-dimethoxybenzyl)thieno[2,3-b]pyridine-3-sulfonamide]	
45	6600	Cc1noc(NS(=O)(=O)c2c(C(=O)CCc3ccc4c(c3)OCO4)sc3ncccc23)c1Cl [N-(4-chloro-3-methyl-5-isoxazolyl)-2-[3-(3,4-methylenedioxyphenyl)-proponyl]thieno [2,3-b]pyridine-3-sulfonamide]	
1800	> 100000	Cc1noc(NS(=O)(=O)c2csc3ncccc23)c1Cl [N-(4-chloro-3-methyl-5-isoxazolyl)thieno[2,3-b]pyridine-3-sulfonamide]	
45	30000	CCc1sc2ncccc2c1S(=O)(=O)Nc1noc(C)c1Cl [N-(4-chloro-5-methyl-3-isoxazolyl)-2-ethylthieno [2,3-b]pyridine-3-sulfonamide]	
